Results: patent publication US20030186464A1, “Surface plasmon resonance methods” (priority 2002, published 2003)

Tests used:
immobilized IL-2 = target: T1, immobilized IL-2 (Homo sapiens, UniProt P60568); assay: Double ligand SPR on immobilized interleukin-2 (Examples 9-11); assay type: binding; conditions: for Kd: Example 11, immobilized interleukin-2, read-out: apparent Kd in SPR experiments
T1 construct: made in house; host or cells: E. coli
Experimental: A CM5 sensor chip (Biacore-BR-1000-14) is docked in a Biacore 2000 SPR device and normalized using a standard Biacore protocol with 70% glycerol. The chip is next equilibrated in PBS for approximately 1 hr at a 20 μL/min flow rate. The dextran surface of the chip is activated through an NHS/EDC coupling. This coupling is done using an amine coupling kit (Biacore—BR-100-50) containing N-hydroxysuccinimide (NHS 11.5 mg/mL) and N-ethyl-N′-(3-dimethylaminopropyl) carbodiimide hydrochloride (EDC 75 mg/mL). First, the two reagents are mixed in a 1:1 ratio and then 35 μL of the mixture are injected at 5 μL/min. The chip is activated one flow cell at a time, and that flow cell is subsequently labeled with protein.
IL-2 is expressed in E. coli cells and purified using standard procedures. Protein is then concentrated to 100 μM and the buffer is exchanged to 100 mM MES pH 5.75 (Nap-5 column, Pierce). A sensorgram is then run over the activated flow cell at 2,L/min of PBS. The IL-2 solution is then injected at 2 μL/min for 10 min. After injection the change in RUs is measured by marking the RUs at t=0 and t=final and subtracting. This gives the total RU change, which is related to the total mass of protein successfully coupled to the CM5 surface. The total mass will later be used to determine stoichiometry of binding. This procedure is then repeated with another arbitrary protein to create a measure for nonspecific binding. The arbitrary protein is immobilized on an adjacent cell. […] The sensorgram is then altered to flow across all four cells on the CM5 chip at 5 μL/min PBS. A solution of 1 M ethanolamine hydrochloride-NaOH pH 8.5 (Amine coupling kit, Biacore-BR-100-50) is injected at 5 μL/min for 7 min. Proteins are immobilized at densities of 100-160 fmol/mm^2. The chip is equilibrated overnight in PBS+0.05% azide+2% DMSO at 20 μL/min.
In this experiment, variable concentrations of a compound are tested at a constant concentration of another compound. The compound held constant is 2c, for example (structure shown in Example 2). To determine appropriate constant concentrations for 2c, a compound titration is first performed. Dilution series of the compounds are typically performed to produce seven solutions having final compound concentrations of 30 mM, 10 mM, 3.3 mM, 1.1 mM, 0.37 mM, 0.12 mM, and 0.041 mM; an eighth solution is a DMSO-only baseline. The compounds are then diluted into PBS+0.05% azide to final concentrations of 300 μM, 100 μM, 33 μM, 11 μM, 3.7 μM, 1.2 μM, 0.41 μM. The compound solutions are injected from lowest concentration to highest at 40 μL/min for 1 min. The SPR software method includes a 1 min wash before injection, the injection and then a 3 min wash after the injection.
These dilution series are analyzed by BIAevaluation software version 3.0. Sensorgrams are plotted for compound binding to the IL-2 labeled cell of the chip. The sensorgrams are modified by subtracting the sensorgrams for the appropriate compound dilutions over cell 1 (a blank cell). This subtraction step removes any RU changes that might occur due to non-specific interactions between the compound and the chip itself or refractive changes in the buffer. Finally, the eight sensorgrams produced from the compound dilution series are zeroed at the average of their starting RUs. Then the sensorgram produced by injecting DMSO only is subtracted to reveal the final sensorgrams used to determine relative binding.
To determine KdSPR for the compound, the compound concentration is plotted on the X-axis, while the fraction bound at the plateau of the injection is plotted on the Y-axis. The curve is then analyzed via non-linear regression analysis (Kaleidagraph, Synergy Software). […] The concentration chosen is where the RUs remain constant at the top of the binding curve and thus the IL-2:2c ratio is 1. For 2c, this concentration is 100 μM.
A second compound is then run, this time in both the presence and absence of 2c. […]

wild type human IL-2 = wild type human IL-2 (Homo sapiens, UniProt P60568); assay: SPR binding of compounds to immobilized wild type IL-2 (Examples 1-2); conditions: for IL-2 wt Kd: immobilized wild type human IL-2
Y31C-IL-2-SS -3 = target: T2, Y31C-IL-2-SS -3 (Homo sapiens, UniProt P60568, Y51C); assay: SPR binding of compound to immobilized IL-2-SS-ligand complex (Examples 1-2); conditions: immobilized substrate-SS-ligand complex Y31C-IL-2-SS -3
T2 construct: made in house; host or cells: E. coli
Experimental: (§1) A CM5 sensor chip (Biacore-BR-1000-14) is docked in a Biacore 2000 SPR device, and the chip is then normalized using a standard Biacore protocol with 70% glycerol. The chip is next equilibrated in PBS for approximately 1 hr at a 20 μL/min flow rate. The dextran surface of the chip is activated through an NHS/EDC coupling. This activation is done using an amine coupling kit (Biacore—BR-100-50) containing N-hydroxysuccinimide (NHS 11.5 mg/mL) and N-ethyl-N′-(3-dimethylaminopropyl) carbodiimide hydrochloride (EDC 75 mg/mL). The two reagents are first mixed in a 1:1 ratio and then 35 μL of the mixture are injected at […]. The chip is activated one flow cell at a time, and that flow cell is subsequently labeled with protein.
(§2) IL-2 cysteine mutants are expressed in E. coli cells and purified using standard procedures. The cysteine mutants are treated with 10 mM βME overnight to reduce the surface cysteine. The βME is removed and the protein-thiolate is placed in 100 mM HEPES buffer pH 7.4 (Nap-5 column, Pierce). […]
(§3) The protein-SS—ligand complex is next concentrated to 100 μM using a Millipore-UFV5BCCOO 5K NMWL membrane, 0.5 mL centrifugal filter and tube. […] After injection the change in RUs is measured by marking the RUs at t=0 and t=final and subtracting. […]
(§4) The dilution series are analyzed by BIAevaluation software version 3.0. […]

Y31C-IL-2-SS -4 = target: T3, Y31C-IL-2-SS -4 (Homo sapiens, UniProt P60568, Y51C); assay: as above; conditions: immobilized substrate-SS-ligand complex Y31C-IL-2-SS -4
T3 construct: made in house; host or cells: E. coli
Experimental: as §1, §2, §3, §4

K43C-IL-2-SS -2 = target: T4, K43C-IL-2-SS -2 (Homo sapiens, UniProt P60568, K63C); assay: SPR binding of compounds to immobilized IL-2-SS-ligand complex (Examples 1-2); conditions: immobilized substrate-SS-ligand complex K43C-IL-2-SS -2
T4 construct: made in house; host or cells: E. coli
Experimental: as §1, §2, §3, §4

T1 sequence (P60568 21-153): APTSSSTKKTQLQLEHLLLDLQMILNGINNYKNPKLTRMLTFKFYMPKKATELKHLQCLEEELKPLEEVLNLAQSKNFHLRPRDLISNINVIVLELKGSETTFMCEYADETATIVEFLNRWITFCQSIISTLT
Sequence of wild type human IL-2 (P60568 21-153): as above
T4 sequence (P60568 21-153 K63C): as the sequence (P60568 21-153) above, with K43C counted along it
T3 sequence (P60568 21-153 Y51C): as the sequence (P60568 21-153) above, with Y31C counted along it
T2 sequence (P60568 21-153 Y51C): as the sequence (P60568 21-153) above, with Y31C counted along it

Compound: COC(=O)[C@H](Cc1ccc(C=Cc2ccccc2)cc1)NC(=O)C[C@H]1CCCN(C(=N)N)C1 [Compound 2c]
- Kd (immobilized IL-2): 10 µM
- Kd (wild type human IL-2; immobilized wild type human IL-2, read-out: IL-2 wt Kd): 33 µM
- Kd (Y31C-IL-2-SS -3): 8 µM
- Kd (Y31C-IL-2-SS -4): 30 µM

Compound: COCC(=O)N1CCc2c([nH]c3ccccc23)C1 [Compound 3c]
- Kd (immobilized IL-2): > 500 µM
- Kd (K43C-IL-2-SS -2): 250 µM
- IL-2 wt Kd (wild type human IL-2): Inactive

Compound: COCN(C)C(=O)c1ccc(C(C)C)cc1 [Compound 4c]
- Kd,SPR IL-2 (immobilized IL-2; immobilized IL-2, no other compound): Inactive
- Kd (K43C-IL-2-SS -2): 210 µM
- IL-2 wt Kd (wild type human IL-2): Inactive
